For assay [1], the target named is hKv1.5 (Homo sapiens, UniProt P22460). Briefly: Kv1.5 Autopatch Electrophysiology (whole cell patch-clamp). Type of assay: cell-based. To be noted: compound 1 μM, step to 0 mV for 1000 ms, total charge, room temperature (22-24° C.); for inhibition at 1 µM: read-out: hKv1.5 % inh. Here is the method:
The external bathing solution contained (in mM): 150 NaCl, 10 KCl, […], 3 MgCl2, 1 CaCl2, 10 HEPES, pH 7.4. Patch pipettes were filled with an electrode solution of composition (in mM): 160 KCl, 0.5 MgCl2, 10 HEPES, 1 EGTA, pH 7.4 with KOH.
Compounds were dissolved in DMSO (100%) and made up in the external bather at a concentration of 1 μM. All experiments were conducted at room temperature (22-24° C.).
A cell suspension (10 ml), with a density of 100,000 cells/ml, was aliquoted into a 15 ml centrifuge tube and transferred to an incubator (37° C., 5% CO2) for approximately one hour before use. Following 60 min incubation, a tube was taken and centrifuged at 1000 rpm for 4 mins at room temperature. 9.5 ml supernatant was thence discarded, leaving a cell pellet at the bottom of the tube. The pellet was then resuspended using 100 μl of cold (4° C.), filtered (0.22 μm), 0.2% BSA/bather solution (0.02 g BSA/10 ml bather). The bottom of the tube was manually agitated gently until the solution became cloudy with cells. The 100 μl cell resuspension solution was then stored on the bench at 4° C. (using a Peltier-based temperature control device) until used.
A length of capillary glass (1B150E-4, WPI) was dipped into the cell suspension solution, such that ˜3 cm column of fluid was taken up by capillary action. A Ag/AgCl wire was dropped into the non-dipped end of the capillary also. The outside of the solution-filled end of the capillary was then dried and the capillary was loaded into the AutoPatch™
(§1) Borosilicate glass patch pipettes (from 1.5 mm OD, thin-walled filamented, GC150-TF capillary glass, Harvard) were pulled using a DMZ pipette puller (Zeitz Instruments), and were back-filled using the internal pipette solution, being careful that no bubbles remain at the tip or in the body of the pipette. Patch pipettes typically had resistances of 2.3-3.5 MΩ. Once filled, the pipette tip and a proportion of the shaft (˜15 mm) were dipped into Sigmacote (Sigma). The recording pipette was then loaded into the AutoPatch™. Automated patch-clamping was initiated by the operator, but thereafter AutoPatch.exe continued the experiment providing that pre-set conditions and criteria were satisfied.
Whole cell patch-clamp recordings were made using the AutoPatch™ rig, which incorporated an EPC9 amplifier (HEKA, Germany) under control of Pulse software (v8.54, HEKA, Germany), a motion controller with 2 translators (Newport, UK), valve controller (VF1) and a c-level suction device all at room temperature (22-24° C.). This equipment was completely under the control of AutoPatch.exe and operator intervention was only made when there was a requirement to refill the drug reservoirs or to prevent the loss of a cell due to a technical error. Cells with an Rseries greater than 18 MΩ were discounted from the experiment.
Qualification stages prior to perfusion and drug application ensured that the observed current met the criteria for the experiment. Only those cells with an IK>500 pA were used for experiments. Cells were continuously perfused with external solution at a flow rate of 1.8-2 ml/minute. […] Online analysis of the hKv1.5 current during the application of compounds was performed by the AutoPatch™ software. Voltage-step protocols and analysis of data was performed as described for conventional electrophysiology.
Electrophysiology voltage-step protocols and analysis of data was performed as follows. Data was sampled at 5 kHz, and filtered with a −3 dB bandwidth of 2.5 kHz. Cells were held at a voltage of −80 mV. Currents were evoked to a voltage step for 1000 ms in duration at 0 mV every 5 s. Currents were analysed using Pulsefit software (v8.54, HEKA, Germany), with the total charge measured during the whole of the voltage step. All other plots were produced using Igor Pro (WaveMetrics).
A general note: In patch-clamp work, channel activity is measured electrically.

Assay [2] concerns the target T1, human Kv1.3 (Homo sapiens, UniProt P22001).
T1 construct: expressed in transfected cells; host or cells: stably transfected cells grown in medium for CHO cells
The assay can be described thus: Kv1.3 Autopatch Electrophysiology (whole cell patch-clamp, stably transfected CHO cells). Type of assay: cell-based. As to conditions: compound 1 μM, step to +30 mV for 500 ms, inhibition of total charge relative to control, room temperature; for inhibition at 1 µM: CHO, read-out: hKv1.3 % inh. The method, then: Cells stably transfected with cDNA for human Kv1.3 (in pcDNA3.1) were grown in Ex-cell 302 serum-free medium for CHO cells, supplemented with 10 μl/ml [100×] glutamine, 500 μg/ml G418 ([…]), and 1% HT supplement (50×, hypoxanthine and thymidine). Compounds were tested on these cells using the AutoPatch technology in whole cell mode.
The external bathing solution contained (in mM): 150 NaCl, 10 KCl, 1 MgCl2, 3 CaCl2, 10 HEPES, pH 7.4 with NaOH. Patch pipettes were filled with an electrode solution of composition (in mM): 100 K-Gluconate, 20 KCl, 1 MgCl2, 1 CaCl2, 10 HEPES, 11 EGTA, 5 ATP-Na2, 2 Glutathione pH 7.2 with KOH.
Compounds were dissolved in DMSO (100%) and made up in the external bather at a concentration of 1 μM immediately prior to use. All experiments were conducted at room temperature.
A cell suspension (10 ml), with a density of 6×10^6 cells, was aliquoted into a 15 ml centrifuge tube and stored at 4° C. before use. Prior to use a tube was taken and centrifuged at 1000 rpm for 4 mins at room temperature. The supernatant was then discarded, leaving a cell pellet at the bottom of the tube. The pellet was then resuspended using 1 ml of cold (4° C.), filtered (0.22 μm), 0.05% BSA/bather solution (0.05 g BSA/100 ml bather). The bottom of the tube was manually agitated followed by gentle tituration. The cell suspension was then placed in the AutoPatch™ temperature controlled cell-hotel at 14° C. and regularly titurated.
as §1, with “A length of Teflon capillary tubing was dipped into the cell suspension solution, and a column of fluid was taken up by negative pressure. The column of fluid was in electrically connectivity with a Ag/AgCl reference electrode. Borosilicate” for “Borosilicate”, “remained” for “remain”, “2.5-3.5” for “2.3-3.5”, “pipettes were placed in a multiwell array and mounted on” for “pipette was then loaded into”, “AutoPatch™ machine.” for “AutoPatch™.”, “patch-clamping and drug-application” for “patch-clamping”
Whole cell patch-clamp recordings were made using the AutoPatch™ rig, which incorporated an EPC9 or EPC10 amplifier (HEKA, Germany) under control of Pulse software (v8.54 or v8.76, HEKA, Germany), a cell applicator, automated drug application system (DAS), valve controller (VF1) and a suction device all at room temperature. This equipment was completely under the control of AutoPatch.exe and operator intervention was only made when there was a requirement to refill the bather reservoirs or to prevent the loss of a cell due to a technical error.
Qualification stages prior to perfusion and drug application ensured that the observed current met the criteria for the experiment. Cells were continuously perfused with external solution at a flow rate of ˜2 ml/minute.
Electrophysiology voltage-step protocols and analysis of data was performed as follows. Data were sampled at 5 kHz, and filtered with a −3 dB bandwidth of 2.5 kHz. Cells were held at a voltage of −80 mV. Currents were evoked by a voltage step to +30 mV for 500 ms in duration applied every 15 s. Online analysis of the hKv1.3 current during the application of compounds was performed by the Pulse (v8.54 or v8.76, HEKA, Germany), Excel (Microsoft, USA) and AutoPatch™ software, with the total charge measured during the whole of voltage step Inhibition of charge movement in the presence of drug was calculated relative to control.

T1 sequence (P22001 whole entry): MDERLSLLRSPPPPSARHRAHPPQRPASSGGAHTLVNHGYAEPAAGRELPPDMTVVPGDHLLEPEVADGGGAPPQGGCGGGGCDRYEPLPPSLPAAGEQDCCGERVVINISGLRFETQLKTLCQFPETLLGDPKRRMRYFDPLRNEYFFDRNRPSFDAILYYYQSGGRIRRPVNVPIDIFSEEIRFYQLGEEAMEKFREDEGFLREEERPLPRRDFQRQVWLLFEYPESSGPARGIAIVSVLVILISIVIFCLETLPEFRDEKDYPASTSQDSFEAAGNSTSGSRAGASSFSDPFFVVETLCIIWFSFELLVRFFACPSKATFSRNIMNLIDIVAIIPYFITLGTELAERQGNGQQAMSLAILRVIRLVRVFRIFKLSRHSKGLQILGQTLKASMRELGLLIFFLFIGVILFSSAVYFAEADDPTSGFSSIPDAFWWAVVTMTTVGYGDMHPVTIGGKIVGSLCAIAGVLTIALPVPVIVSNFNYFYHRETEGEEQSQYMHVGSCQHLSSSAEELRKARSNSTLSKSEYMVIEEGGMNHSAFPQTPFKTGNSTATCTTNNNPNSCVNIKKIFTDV
Chain of hKv1.5 (P22460 whole entry): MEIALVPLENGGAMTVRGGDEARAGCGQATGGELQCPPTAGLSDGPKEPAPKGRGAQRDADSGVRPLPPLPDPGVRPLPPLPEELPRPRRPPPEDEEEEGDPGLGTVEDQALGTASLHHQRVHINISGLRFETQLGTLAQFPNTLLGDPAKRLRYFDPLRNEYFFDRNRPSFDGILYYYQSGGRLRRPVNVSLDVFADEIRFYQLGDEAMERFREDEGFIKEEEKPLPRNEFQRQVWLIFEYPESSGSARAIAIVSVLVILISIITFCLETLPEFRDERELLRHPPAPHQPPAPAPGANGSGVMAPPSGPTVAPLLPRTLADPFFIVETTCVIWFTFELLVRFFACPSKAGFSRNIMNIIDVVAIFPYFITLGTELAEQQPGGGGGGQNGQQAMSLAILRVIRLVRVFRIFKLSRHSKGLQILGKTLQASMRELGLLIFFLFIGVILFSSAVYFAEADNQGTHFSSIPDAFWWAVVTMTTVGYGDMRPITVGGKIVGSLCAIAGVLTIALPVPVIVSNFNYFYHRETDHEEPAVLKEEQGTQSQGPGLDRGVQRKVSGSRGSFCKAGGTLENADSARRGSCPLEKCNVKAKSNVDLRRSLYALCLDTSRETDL

`O=C(Cc1ccccc1)Nc1cccc(N(Cc2ccccc2)S(=O)(=O)c2ccccc2)c1` [Example 11, N-[3-(Benzenesulfonyl-benzyl-amino)-phenyl]-2-phenyl-acetamide]: the inhibition at 1 µM in assay [1] is 77%; in assay [2] it was 86%.
As for `O=S(=O)(c1ccccc1)N(Cc1ccccc1)c1cccc(N2CCN(c3ccccc3)CC2)c1` [Example 5, N-Benzyl-N-[3-(4-phenyl-piperazin-1-yl)-phenyl]-benzenesulfonamide], the inhibition at 1 µM in assay [1] came out at 91%; in assay [2], 88%.
Consider `Cn1ccc(S(=O)(=O)N(Cc2ccc(Cl)cc2)c2cccc(OCc3ccccn3)c2)n1` [Example 6, 1-Methyl-1H-pyrazole-3-sulfonic acid (4-chloro-benzyl)-[3-(pyridin-2-ylmethoxy)-phenyl]-amide], for which the inhibition at 1 µM in assay [1] is 72%; in assay [2] it was 91%.
In turn, “Pyridine-3-sulfonic acid (4-chloro-benzyl)-[3-(2-oxo-imidazolidin-1-ylbenzyl)-[3-(2-oxo-imidazolidin-1-yl)-phenyl]-amide [Example 48]” had a hKv1.5 % inh. in assay [1] of 89%. In assay [2], this molecule had a hKv1.3 % inh. of 96%.
Turning to `O=C1NCCN1c1cccc(N(Cc2ccc(Cl)cc2)S(=O)(=O)c2ccccc2)c1` [Example 46, N-(4-Chloro-benzyl)-N-[3-(2-oxo-imidazolidin-1-yl)-phenyl]-benzenesulfonamide], the results for the inhibition at 1 µM in assay [1] and in assay [2] were 91% and 100%, respectively.
In turn, “1-Methyl-1H-imidazole-4-sulfonic acid (4-chloro-benzyl)-(3-morpholin-4-yl-phenyl)-amide [Example 36]” yielded a hKv1.5 % inh. in assay [1] of 44%. In addition, the hKv1.3 % inh. in assay [2] was determined as 83%.
For the molecule `Cn1cncc1C(=O)Nc1cccc(N(Cc2ccccc2)S(=O)(=O)c2ccccc2)c1` [Example 3, 3-Methyl-3H-imidazole-4-carboxylic acid [3-(benzenesulfonyl-benzyl-amino)-phenyl]-amide], the inhibition at 1 µM in assay [1] was 73%; in assay [2], 90%.
For `Cn1ccc(S(=O)(=O)N(Cc2ccc(Cl)cc2)c2cccc(OCC(=O)Nc3ccccn3)c2)n1` [Example 49, 2-{3-[(4-Chloro-benzyl)-(1-methyl-1H-pyrazole-3-sulfonyl)-amino]-phenoxy}-N-pyridin-2-yl-acetamide] the same measures were 99% and 95%.
On to `CNC(=O)COc1cccc(N(Cc2ccc(Cl)cc2)S(=O)(=O)c2ccn(C)n2)c1` [Example 7, 2-{3-[(4-Chloro-benzyl)-(1-methyl-1H-pyrazole-3-sulfonyl)-amino]-phenoxy}-N-methyl-acetamide], for which the figures for the inhibition at 1 µM in assay [1] and in assay [2] were 93% and 99%, respectively.
“4-Methyl-3,4-dihydro-2H-benzo[1,4]oxazine-7-sulfonic acid benzyl-[3-(2-oxo-pyrrolidin-1-yl)-phenyl]-amide [Example 18]”: in assay [1], the hKv1.5 % inh. was found to be 56%. Besides, in assay [2], the hKv1.3 % inh. is 65%.
For `Cn1ccc(S(=O)(=O)N(Cc2ccc(Cl)cc2)c2cccc(OCC(=O)NC3CCC3)c2)n1` [Example 50, 2-{3-[(4-Chloro-benzyl)-(1-methyl-1H-pyrazole-3-sulfonyl)-amino]-phenoxy}-N-cyclobutyl-acetamide], the results for the inhibition at 1 µM in assay [1] and in assay [2] were 79% and 94%, respectively.
For the molecule “Pyridine-3-sulfonic acid benzyl-[3-(4-phenyl-piperazin-1-yl)-phenyl]-amide [Example 16]”, the hKv1.5 % inh. in assay [1] was 91%. Moreover, the hKv1.3 % inh. in assay [2] stood at 97%.
For “N-Benzyl-3-cyano-4-fluoro-N-[3-(2-oxo-imidazolidin-1-yl)-phenyl]-benzenesulfonamide [Example 44]”, in that order: 72% and 90%.
For “N-(4-Chloro-benzyl)-3-cyano-4-fluoro-N-[3-(2-oxo-imidazolidin-1-yl)-phenyl]-benzenesulfonamide [Example 45]”, in that order: 95% and 100%.
Take `O=C1NCCN1c1cccc(N(Cc2ccccc2)S(=O)(=O)c2ccccc2)c1` [Example 1, N-Benzyl-N-[3-(2-oxo-imidazolidin-1-yl)-phenyl]-benzenesulfonamide]: the inhibition at 1 µM was 66% in assay [1] and 86% in assay [2].
Consider “1-Methyl-1H-imidazole-4-sulfonic acid benzyl-[3-(4-phenyl-piperazin-1-yl)-phenyl]-amide [Example 13]”, for which, in assay [2], the hKv1.3 % inh. amounted to 41%.
As for `Cn1cnc(S(=O)(=O)N(Cc2ccc(Cl)cc2)c2ccc(F)c(N3CCCC3=O)c2)c1` [Example 4, 1-Methyl-1H-imidazole-4-sulfonic acid (4-chloro-benzyl)-[4-fluoro-3-(2-oxo-pyrrolidin-1-yl)-phenyl]-amide], the inhibition at 1 µM in assay [2] was determined as 61%.
